In patent US20230293526A1, “METHOD FOR TREATING CANCER WITH A REVERSE TRANSCRIPTASE INHIBITOR” (PrimeFour Therapeutics, Inc., priority 2020, published 2023):

Tested on: cancer cell lines
Test: Cancer cell proliferation activity of representative nucleosides, CellTiterGlo 72 h (Example 7, Tables 8 and 9)
Assay type: cell-based
Conditions: 72 h
Protocol: Dose response relationships on cell proliferation was assessed for representative nucleosides on cancer cell lines. Briefly, compound treatment of cells started one day after seeding with a final DMSO concentration of 0.1%, and was performed by nanodrop-dispensing using a Tecan Dispenser. 0.1% DMSO (solvent) and Staurosporine (10 μM) served as high control (100% viability) and low control (0% viability), respectively. Cells were cultured in the appropriate media. For the assays, cells were seeded in white cell culture-treated flat and clear bottom multiwell plates and incubated at 37° C. overnight before compound was added. After incubation for 72 h at 37° C. at 5% or 10% CO2 dependent on the medium, cell plates were equilibrated to room temperature for one hour, CellTiterGlo reagent (Promega) was added and luminescence was measured approximately an hour later using a luminometer.
Raw data were converted into percent cell viability relative to the high and low control, which were set to 100% and 0%, respectively.

Compound `N#C[C@]1(CO)O[C@@H](n2ccc(N)nc2=O)C[C@@H]1O` [compound 29] has an IC50 (72 h, 5637, bladder) of 230 nM, an IC50 (CLS439, bladder) of 3000 nM and an IC50 (HS729, muscle) of 550 nM. For the same compound, the IC50 (J82, bladder) was 840 nM, the IC50 (JAR, placenta) was over 50000 nM and the IC50 (MT3, breast) was 120 nM. The IC50 (PC3, prostate) was 200 nM, the IC50 (RD, muscle) was 1400 nM and the IC50 (T24, bladder) was 180 nM. The IC50 (Homo sapiens, 22Rv1, 72 h, 22RV1, prostate) was 1040 nM, the IC50 (Homo sapiens, 786-0, 72 h, 786O, kidney) was 1610 nM and the IC50 (Homo sapiens, A204, 72 h, A204, muscle) was 30 nM. It also gave an IC50 (Homo sapiens, A549, 72 h, A549, lung) of 880 nM, an IC50 (Homo sapiens, A673, 72 h, A673, bone) of 200 nM and an IC50 (Homo sapiens, A2780, 72 h, A2780, ovary) of 640 nM. For the same compound, the IC50 (Homo sapiens, A-375, 72 h, A375, skin) was 570 nM, the IC50 (Homo sapiens, A-431, 72 h, A431, skin) was 300 nM and the IC50 (Homo sapiens, ACHN, kidney) was 710 nM. The IC50 (Homo sapiens, ASPC1, 72 h, ASPC1, pancreas) was 280 nM, the IC50 (Homo sapiens, BT-20, 72 h, BT20, breast) was 1470 nM and the IC50 (Homo sapiens, BXPC-3, 72 h, BXPC3, pancreas) was 350 nM. It also gave an IC50 (Homo sapiens, C-33-A, C33A, endometrial) of 240 nM, an IC50 (Homo sapiens, CAKI-1, 72 h, CAKI1, kidney) of 110 nM and an IC50 (Homo sapiens, COLO 205, 72 h, COLO205, colon) of 160 nM. For the same compound, the IC50 (Homo sapiens, COLO-678, 72 h, COLO678, colon) was 10800 nM, the IC50 (Homo sapiens, Ca-Ski, CASKI, endometrial) was 5220 nM and the IC50 (Homo sapiens, Caco-2, 72 h, CACO2, colon) was over 50000 nM. The IC50 (Homo sapiens, Calu-6, 72 h, CALU6, lung) was 2540 nM, the IC50 (Homo sapiens, DLD-1, 72 h, DLD1, colon) was 770 nM and the IC50 (Homo sapiens, DU-145, 72 h, DU145, prostate) was 330 nM. It also gave an IC50 (Homo sapiens, EFO-21, 72 h, EFO21, ovary) of 1190 nM, an IC50 (Homo sapiens, EJ-28, 72 h, EJ28, bladder) of 2340 nM and an IC50 (Homo sapiens, Granta-519, 72 h, GRANTA-519, hematological) of 80 nM. It also gave an IC50 (Homo sapiens, HCT-15, 72 h, HCT15, colon) of 810 nM, an IC50 (Homo sapiens, HCT-116, 72 h, HCT116, colon) of 550 nM and an IC50 (Homo sapiens, HEK293, 72 h, HEK293, kidney) of 12700 nM. It also gave an IC50 (Homo sapiens, HL-60, 72 h, HL-60, hematological) of 540 nM, an IC50 (Homo sapiens, HT-29, 72 h, HT29, colon) of 1060 nM and an IC50 (Homo sapiens, HT-1080, 72 h, HT1080, connective tissue) of 350 nM. The IC50 (Homo sapiens, HeLa, endometrial) was 750 nM, the IC50 (Homo sapiens, HepG2, 72 h, HEPG2, liver) was 2670 nM and the IC50 (Homo sapiens, Hs-578T, HS578T, breast) was 1790 nM. The IC50 (Homo sapiens, IGROV-1, 72 h, IGROV1, ovary) was 1370 nM, the IC50 (Homo sapiens, IMR-90, 72 h, IMR90, lung) was 2730 nM and the IC50 (Homo sapiens, JEG-3, 72 h, JEG3, placenta) was 1900 nM. The IC50 (Homo sapiens, JIMT-1, 72 h, JIMT1, breast) was 210 nM, the IC50 (Homo sapiens, K562, 72 h, K-562, hematological) was 1610 nM and the IC50 (Homo sapiens, Kasumi 1, 72 h, KASUMI-1, hematological) was 220 nM. For the same compound, the IC50 (Homo sapiens, L-363, 72 h, L-363, hematological) was over 50000 nM, the IC50 (Homo sapiens, LoVo, colon) was 440 nM and the IC50 (Homo sapiens, MCF7, 72 h, MCF7, breast) was over 50000 nM. It also gave an IC50 (Homo sapiens, MDA-MB-231, 72 h, MDAMB231, breast) of 130 nM, an IC50 (Homo sapiens, MDA-MB-435, 72 h, MDAMB435, skin) of 2120 nM and an IC50 (Homo sapiens, MDA-MB-436, 72 h, MDAMB436, breast) of 360 nM. For the same compound, the IC50 (Homo sapiens, MDA-MB-468, 72 h, MDAMB468, breast) was 1200 nM, the IC50 (Homo sapiens, MG-63, 72 h, MG63, bone) was 570 nM and the IC50 (Homo sapiens, MHH-ES-1, 72 h, MHHES1, bone) was 210 nM. The IC50 (Homo sapiens, MIA PaCa-2, 72 h, MIAPACA2, pancreas) was 1930 nM, the IC50 (Homo sapiens, MINO, hematological) was 70 nM and the IC50 (Homo sapiens, MV4-11, 72 h, MV4-11, hematological) was 600 nM. It also gave an IC50 (Homo sapiens, NCI-H23, 72 h, NCI-H23, lung) of 1340 nM, an IC50 (Homo sapiens, NCI-H82, 72 h, NCIH82, lung) of over 50000 nM and an IC50 (Homo sapiens, NCI-H292, 72 h, NCIH292, lung) of 790 nM. It also gave an IC50 (Homo sapiens, NCI-H460, 72 h, NCIH460, ung) of 2050 nM, an IC50 (Homo sapiens, OVCAR-3, 72 h, OVCAR3, ovary) of 580 nM and an IC50 (Homo sapiens, OVCAR-4, 72 h, OVCAR4, ovary) of 4180 nM. For the same compound, the IC50 (Homo sapiens, PANC-1, 72 h, PANC1, pancreas) was 3430 nM, the IC50 (Homo sapiens, PLC-PRF-5, 72 h, PLCPRF5, liver) was over 50000 nM and the IC50 (Homo sapiens, Panc1005, 72 h, PANC1005, pancreas) was 650 nM. The IC50 (Homo sapiens, Ramos, hematological) was 170 nM, the IC50 (Homo sapiens, SAOS-2, 72 h, SAOS2, bone) was 110 nM and the IC50 (Homo sapiens, SF-268, 72 h, SF268, brain) was 350 nM. For the same compound, the IC50 (Homo sapiens, SF-295, 72 h, SF295, brain) was 1130 nM, the IC50 (Homo sapiens, SK-BR-3, 72 h, SKBR3, breast) was 650 nM and the IC50 (Homo sapiens, SK-HEP1, 72 h, SKHEP1, liver) was 240 nM. For the same compound, the IC50 (Homo sapiens, SK-LMS-1, 72 h, SKLMS1, uterus) was 3740 nM, the IC50 (Homo sapiens, SK-MEL-5, 72 h, SKMEL5, skin) was over 50000 nM and the IC50 (Homo sapiens, SK-MEL-28, 72 h, SKMEL28, skin) was 2630 nM. For the same compound, the IC50 (Homo sapiens, SK-N-AS, SKNAS, brain) was 4410 nM, the IC50 (Homo sapiens, SK-N-SH, SKNSH, brain) was over 50000 nM and the IC50 (Homo sapiens, SK-OV-3, 72 h, SKOV3, ovary) was 890 nM. The IC50 (Homo sapiens, SNB-75, 72 h, SNB75, brain) was 840 nM, the IC50 (Homo sapiens, SU-DHL10, 72 h, SU-DHL-10, hematological) was 500 nM and the IC50 (Homo sapiens, SU-DHL-6, 72 h, SU-DHL-6, hematological) was 800 nM. It also gave an IC50 (Homo sapiens, SW-620, 72 h, SW620, colon) of 2640 nM, an IC50 (Homo sapiens, TE-671, 72 h, TE671, muscle) of 1750 nM and an IC50 (Homo sapiens, THP-1, 72 h, THP-1, hematological) of 970 nM. It also gave an IC50 (Homo sapiens, U2OS, bone) of 5320 nM, an IC50 (Homo sapiens, U-87 MG, U87MG, brain) of 500 nM and an IC50 (Homo sapiens, UMUC3, 72 h, UMUC3, bladder) of 1160 nM. It also gave an IC50 (Homo sapiens, UO-31, 72 h, UO31, kidney) of 660 nM, an IC50 (Homo sapiens, WSU-NHL, hematological) of 220 nM and an IC50 (NCI-H358M, NCIH358M, lung) of 40 nM. It also gave an IC50 (PBMC, hematological) of 350 nM and an IC50 (RD-ES, RDES, bone) of 1620 nM.
